Measurements published in ChEMBL document CHEMBL1201862, “PubChem BioAssay data set” (2004).
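Compound exposure: 48 hours, 5 concentrations, 96-well plates. Abbreviation: GI50, concentration required for 50% inhibition of growth.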 Calls of active or inactive are those of the source. Rule as the data show it: active = GI50 up to about 1.1 µM and inactive = higher.

Key:
Assay in all cases: growth of human tumour cells (NCI), 48 h
A549 = tested on: A549
ACHN = tested on: ACHN
CCRF-CEM = tested on: CCRF-CEM
COLO 205 = tested on: COLO 205
EKVX = tested on: EKVX
HCT-116 = tested on: HCT-116
HT-29 = tested on: HT-29
KM12 = tested on: KM12
LOX IMVI = tested on: LOX IMVI
M14 = tested on: M14
NCI-H226 = tested on: NCI-H226
NCI-H522 = tested on: NCI-H522
RPMI-8226 = tested on: RPMI-8226
SF-539 = tested on: SF-539
SK-OV-3 = tested on: SK-OV-3
SNB-19 = tested on: SNB-19
SNB-75 = tested on: SNB-75
SW-620 = tested on: SW-620
U-251 = tested on: U-251
UACC-62 = tested on: UACC-62

Structure (SMILES)	GI50 (A549)	GI50 (ACHN)	GI50 (CCRF-CEM)	GI50 (COLO 205)	GI50 (EKVX)	GI50 (HCT-116)	GI50 (HT-29)	GI50 (KM12)	GI50 (LOX IMVI)	GI50 (M14)	GI50 (NCI-H226)	GI50 (NCI-H522)	GI50 (RPMI-8226)	GI50 (SF-539)	GI50 (SK-OV-3)	GI50 (SNB-19)	GI50 (SNB-75)	GI50 (SW-620)	GI50 (U-251)	GI50 (UACC-62)
O=[N+]([O-])c1ccc2c(c1)OCCOCCOc1ccc([N+](=O)[O-])cc1OCCOCCO2	> 100 µM (inactive)	> 100 µM (inactive)	> 100 µM (inactive)	> 100 µM (inactive)	> 100 µM (inactive)	> 100 µM (inactive)	> 100 µM (inactive)	> 100 µM (inactive)	> 100 µM (inactive)	> 100 µM (inactive)	> 100 µM (inactive)	> 100 µM (inactive)	> 100 µM (inactive)	> 100 µM (inactive)	> 100 µM (inactive)	> 100 µM (inactive)	> 100 µM (inactive)	> 100 µM (inactive)	> 100 µM (inactive)	> 100 µM (inactive)
CC1=NN(C(=O)CC(=O)Nc2cccc(C)c2)C(=O)C1/N=N\c1ccc(S(=O)(=O)c2ccc(/N=N/C3C(=O)N(C(=O)CC(=O)Nc4cccc(C)c4)N=C3C)cc2)cc1 (centres undefined)	> 100 µM (inactive)	> 100 µM (inactive)	> 100 µM (inactive)	> 100 µM (inactive)	> 100 µM (inactive)	> 100 µM (inactive)	> 100 µM (inactive)	> 100 µM (inactive)	> 100 µM (inactive)	> 100 µM (inactive)	> 100 µM (inactive)	> 100 µM (inactive)	> 100 µM (inactive)	> 100 µM (inactive)	> 100 µM (inactive)	> 100 µM (inactive)	> 100 µM (inactive)	> 100 µM (inactive)	> 100 µM (inactive)	> 100 µM (inactive)
CC(=O)OCC1OC(O[C@@H]2C[C@H]3C(C)(C)[C@H](OC(C)=O)CC[C@]3(C)[C@H]3CC[C@@]45C[C@H](O)C[C@H](C)[C@@H]4CC=C5[C@@]32C)C(O)C(O)C1O (some centres undefined)	4.59 µM (inactive)	6.05 µM (inactive)	2.81 µM (inactive)	1.82 µM (inactive)	7.69 µM (inactive)	2.08 µM (inactive)	1.91 µM (inactive)	2.38 µM (inactive)	1.98 µM (inactive)	4.06 µM (inactive)	4.37 µM (inactive)	2.72 µM (inactive)	2.42 µM (inactive)	6.59 µM (inactive)	9.12 µM (inactive)	4.02 µM (inactive)	3.16 µM (inactive)	4.18 µM (inactive)	3.04 µM (inactive)	4.12 µM (inactive)
COc1ccc2c3c(n(Cc4ccccc4)c(=O)c2c1)-c1cc(OC)c(OC)cc1C3C (centres undefined)	18.6 µM (inactive)	11.5 µM (inactive)	> 89.5 µM (inactive)	41.6 µM (inactive)	10.6 µM (inactive)	14.7 µM (inactive)	25.7 µM (inactive)	23.3 µM (inactive)	14.3 µM (inactive)	44 µM (inactive)	17.9 µM (inactive)	9.08 µM (inactive)	14.5 µM (inactive)	7.52 µM (inactive)	18.8 µM (inactive)	21.7 µM (inactive)	13.6 µM (inactive)	35.7 µM (inactive)	5.69 µM (inactive)	18.7 µM (inactive)
Cc1ccc(O)c(-c2csc(NCN3CCN(CNc4nc(-c5cc(C)ccc5O)cs4)CC3)n2)c1	> 100 µM (inactive)	> 100 µM (inactive)	20.5 µM (inactive)	> 100 µM (inactive)	> 100 µM (inactive)	> 100 µM (inactive)	> 100 µM (inactive)	> 100 µM (inactive)	> 100 µM (inactive)	> 100 µM (inactive)	> 100 µM (inactive)	> 100 µM (inactive)	25.2 µM (inactive)	> 100 µM (inactive)	> 100 µM (inactive)	> 100 µM (inactive)	> 100 µM (inactive)	77.3 µM (inactive)	> 100 µM (inactive)	> 100 µM (inactive)
COc1ccc(C(C)NNC(=O)c2ccncc2)c(OC)c1 (centres undefined)	> 100 µM (inactive)	> 100 µM (inactive)	> 100 µM (inactive)	> 100 µM (inactive)	> 100 µM (inactive)	> 100 µM (inactive)	> 100 µM (inactive)	> 100 µM (inactive)	> 100 µM (inactive)	> 100 µM (inactive)	> 100 µM (inactive)	> 100 µM (inactive)	> 100 µM (inactive)	> 100 µM (inactive)	> 100 µM (inactive)	> 100 µM (inactive)	> 100 µM (inactive)	> 100 µM (inactive)	> 100 µM (inactive)	> 100 µM (inactive)
C1=CC2C=CC(C=C1)P2c1ccccc1 (centres undefined)	> 100 µM (inactive)	> 100 µM (inactive)	> 100 µM (inactive)	> 100 µM (inactive)	> 100 µM (inactive)	> 100 µM (inactive)	> 100 µM (inactive)	> 100 µM (inactive)	> 100 µM (inactive)	> 100 µM (inactive)	> 100 µM (inactive)	> 100 µM (inactive)	> 100 µM (inactive)	> 100 µM (inactive)	> 100 µM (inactive)	> 100 µM (inactive)	> 100 µM (inactive)	> 100 µM (inactive)	> 100 µM (inactive)	> 100 µM (inactive)
O=C1C(N2CCOCC2)=C(Cl)C(=O)c2ncccc21	> 10 µM (inactive)	1.85 µM (inactive)	0.524 µM (active)	2.24 µM (inactive)	> 10 µM (inactive)	1.71 µM (inactive)	> 7.89 µM (inactive)	> 3.84 µM (inactive)	1.94 µM (inactive)	2.37 µM (inactive)	> 6.25 µM (inactive)	1.45 µM (inactive)	1.56 µM (inactive)	4.89 µM (inactive)	> 10 µM (inactive)	> 10 µM (inactive)	> 10 µM (inactive)	1.87 µM (inactive)	5.71 µM (inactive)	2.33 µM (inactive)
CN1CCCC2C(c3ccccc3)C(C3=NCCCC3)C(c3ccccc3)CC21 (centres undefined)	> 100 µM (inactive)	72.3 µM (inactive)	35.2 µM (inactive)	26.4 µM (inactive)	71 µM (inactive)	15.9 µM (inactive)	19.5 µM (inactive)	53.2 µM (inactive)	19.5 µM (inactive)	20.7 µM (inactive)	> 100 µM (inactive)	17 µM (inactive)	18.4 µM (inactive)	16 µM (inactive)	> 100 µM (inactive)	> 100 µM (inactive)	13.6 µM (inactive)	48.6 µM (inactive)	32.2 µM (inactive)	17.8 µM (inactive)
Cc1cc2c(cc1C)[n+]([O-])c(C(=O)/C=C/c1ccc(Cl)cc1)c(C)[n+]2[O-]	28.2 µM (inactive)	25.5 µM (inactive)	32.9 µM (inactive)	20.5 µM (inactive)	55 µM (inactive)	–	30.3 µM (inactive)	33.7 µM (inactive)	21.7 µM (inactive)	23.3 µM (inactive)	> 100 µM (inactive)	19.4 µM (inactive)	23.4 µM (inactive)	20.5 µM (inactive)	34.7 µM (inactive)	30.3 µM (inactive)	19.6 µM (inactive)	31.1 µM (inactive)	26.8 µM (inactive)	20.3 µM (inactive)
COc1cc2nc3c(=C(C#N)C#N)c4ccccc4n3c(=O)c2cc1OC	> 100 µM (inactive)	> 100 µM (inactive)	32.4 µM (inactive)	> 100 µM (inactive)	> 100 µM (inactive)	> 100 µM (inactive)	> 100 µM (inactive)	> 100 µM (inactive)	> 100 µM (inactive)	> 100 µM (inactive)	> 100 µM (inactive)	> 100 µM (inactive)	> 100 µM (inactive)	> 100 µM (inactive)	> 100 µM (inactive)	> 100 µM (inactive)	41.6 µM (inactive)	> 100 µM (inactive)	> 100 µM (inactive)	> 100 µM (inactive)
CCCO/S(=N\S(=O)(=O)c1ccccc1)c1ccccc1[N+](=O)[O-] (centres undefined)	> 100 µM (inactive)	> 100 µM (inactive)	> 100 µM (inactive)	> 100 µM (inactive)	> 100 µM (inactive)	> 100 µM (inactive)	> 100 µM (inactive)	> 100 µM (inactive)	> 100 µM (inactive)	> 100 µM (inactive)	> 100 µM (inactive)	> 100 µM (inactive)	> 100 µM (inactive)	> 100 µM (inactive)	> 100 µM (inactive)	> 100 µM (inactive)	> 100 µM (inactive)	> 100 µM (inactive)	> 100 µM (inactive)	> 100 µM (inactive)
CC1(C)OC[C@@H](/C=C\CCO[Si](c2ccccc2)(c2ccccc2)C(C)(C)C)N1C(=O)c1ccccc1	3.59 µM (inactive)	12.3 µM (inactive)	6.21 µM (inactive)	8.32 µM (inactive)	5.75 µM (inactive)	3.41 µM (inactive)	4.14 µM (inactive)	7.96 µM (inactive)	13.6 µM (inactive)	7.08 µM (inactive)	7.94 µM (inactive)	3.61 µM (inactive)	2.86 µM (inactive)	18.3 µM (inactive)	48.2 µM (inactive)	17.9 µM (inactive)	> 100 µM (inactive)	14.5 µM (inactive)	12.7 µM (inactive)	9.91 µM (inactive)
